Measurements as given in PubChem BioAssay AID1259411 (Chemical Carcinogenesis Research Information System (CCRIS), 2018).
The source made the active and inactive calls. No rule for the calls is given here.

Tested on: rodent carcinogenicity bioassays, tumor incidence
Assay: CCRIS carcinogenicity studies
How it was run: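 NCI-built, expert-reviewed records of carcinogenicity and related test outcomes (mutagenicity, tumor promotion/inhibition) compiled from published and report sources, historical span 1985-2011, not updated.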

## CCCCCCCCCCCCN=C(N)N
Species: Mouse, Strain/Sex: Crl:CD-1(ICR)BR/Female (70/Group), Route: Oral, Dose: 0, 200, 750, 1500 ppm in diet for 78 wk, study duration 78 wk. Test sample purity, 98%., Dose: 0, 200, 750, 1500 ppm in diet for 78 wk, study duration 78 wk. Test sample purity, 98%., Tumor Site: Type of Lesion: Liver: Hepatocellular adenoma and carcinoma combined (high dose only)
  carcinogen call: active; positive, (neither tumor type, alone, was statistically significant.)
Species: Mouse, Strain/Sex: Crl:CD-1(ICR)BR/Male (70/Group), Route: Oral, Dose: 0, 200, 750, 1500 ppm in diet for 78 wk, study duration 78 wk. Test sample purity, 98%., Dose: 0, 200, 750, 1500 ppm in diet for 78 wk, study duration 78 wk. Test sample purity, 98%.
  carcinogen call: inactive; negative
Species: Rat, Strain/Sex: Sprague-Dawley/Female (60/Group), Route: Oral, Dose: 0, 13.2, 26.5, 53.5 mg/kg/day in diet on wks 1-101, study duration 2 yrs. Test sample purity, 98.6%., Dose: 0, 13.2, 26.5, 53.5 mg/kg/day in diet on wks 1-101, study duration 2 yrs. Test sample purity, 98.6%.
  carcinogen call: inactive; negative
Species: Rat, Strain/Sex: Sprague-Dawley/Male (60/Group), Route: Oral, Dose: 0, 10.2, 20.3, 41.9 mg/kg/day in diet on wks 1-101, study duration 2 yrs. Test sample purity, 98.6%, Dose: 0, 10.2, 20.3, 41.9 mg/kg/day in diet on wks 1-101, study duration 2 yrs. Test sample purity, 98.6%
  carcinogen call: inactive; negative

## COc1cc(-c2ccc(N=C=O)c(OC)c2)ccc1N=C=O
Species: MOUSE, Strain/Sex: B6C3F1/FEMALE, Route: ORAL, Dose: 0, 22000, 44000 PPM IN DIET FOR 78 WK (STUDY DURATION: 103 WK), Dose: 0, 22000, 44000 PPM IN DIET FOR 78 WK (STUDY DURATION: 103 WK)
  carcinogen call: inactive; negative
Species: MOUSE, Strain/Sex: B6C3F1/MALE, Route: ORAL, Dose: 0, 22000, 44000 PPM IN DIET FOR 78 WK (STUDY DURATION: 103 WK), Dose: 0, 22000, 44000 PPM IN DIET FOR 78 WK (STUDY DURATION: 103 WK)
  carcinogen call: inactive; negative
Species: RAT, Strain/Sex: F344/FEMALE, Route: GAVAGE, ORAL, Dose: 0, 1500, 3000 MG/KG FOR 22 WK, THEN 22000, 44000 PPM IN DIET FOR 56 WK (STUDY DURATION: 104 WK), Dose: 0, 1500, 3000 MG/KG FOR 22 WK, THEN 22000, 44000 PPM IN DIET FOR 56 WK (STUDY DURATION: 104 WK), Tumor Site: Type of Lesion: HEMATOPOIETIC SYSTEM (LEUKEMIA), UTERUS: ENDOMETRIAL STROMAL POLYP, EAR (ZYMBAL GLAND AND SKIN OF EAR): SQUAMOUS CELL CA, Tumor Site: Type of Lesion: HEMATOPOIETIC SYSTEM (LEUKEMIA), UTERUS: ENDOMETRIAL STROMAL POLYP, EAR (ZYMBAL GLAND AND SKIN OF EAR): SQUAMOUS CELL CA
  carcinogen call: active; positive
Species: RAT, Strain/Sex: F344/MALE, Route: GAVAGE, ORAL, Dose: 0, 1500, 3000 MG/KG FOR 22 WK, THEN 22000, 44000 PPM IN DIET FOR 56 WK (STUDY DURATION: 104 WK), Dose: 0, 1500, 3000 MG/KG FOR 22 WK, THEN 22000, 44000 PPM IN DIET FOR 56 WK (STUDY DURATION: 104 WK), Tumor Site: Type of Lesion: INTEGUMENTARY SYSTEM (SKIN (EXCLUDING SKIN OF EAR)): PAPILLOMA (NOS) OR BASAL CELL TUMOR OR TRICHOEPITHELIOMA OR SEBACEO
  carcinogen call: active; positive

## O=c1cc[nH]c(=S)[nH]1
Species: MOUSE, Route: ORAL, Tumor Site: Type of Lesion: LIVER
  carcinogen call: active; positive
Species: RAT, Route: ORAL, Tumor Site: Type of Lesion: THYROID GLAND
  carcinogen call: active; positive

## CNc1ccc(N)cc1
Species: MOUSE, Strain/Sex: B6C3F1/MALE, Route: INTRAPERITONEAL, Dose: 0, 0.15 UMOL/G ONCE IN SODIUM ACETATE BUFFER (STUDY DURATION: 10 MO)
  carcinogen call: inactive; negative

## COC(=O)N/N=C/c1c[n+]([O-])c2ccccc2[n+]1[O-]
Species: RAT, Strain/Sex: WISTAR/FEMALE, Route: ORAL, Dose: 0, 50, 100, 250, 500 PPM IN DIET FOR 12 MO (STUDY DURATION: 12 MO), Dose: 0, 50, 100, 250, 500 PPM IN DIET FOR 12 MO (STUDY DURATION: 12 MO), Tumor Site: Type of Lesion: LIVER: HEPATOCELLULAR CARCINOMA
  carcinogen call: active; positive
Species: RAT, Strain/Sex: WISTAR/MALE, Route: ORAL, Dose: 0, 50, 100, 250, 500 PPM IN DIET FOR 12 MO (STUDY DURATION: 12 MO), Dose: 0, 50, 100, 250, 500 PPM IN DIET FOR 12 MO (STUDY DURATION: 12 MO), Tumor Site: Type of Lesion: LIVER: HEPATOCELLULAR CARCINOMA
  carcinogen call: active; positive

## COP(=O)(OC)OC(=CCl)c1cc(Cl)c(Cl)cc1Cl
Species: MOUSE, Strain/Sex: B6C3F1/MALE, Route: ORAL, Dose: 0, 8000, 16000 PPM IN DIET, Dose: 0, 8000, 16000 PPM IN DIET, Tumor Site: Type of Lesion: LIVER: NEOPLASTIC NODULE OR HEPATOCELLULAR CARCINOMA
  carcinogen call: active; positive
Species: RAT, Strain/Sex: OSBORNE-MENDEL/MALE, Route: ORAL, Dose: 0, 4250, 8500 PPM IN DIET, TWA, Dose: 0, 4250, 8500 PPM IN DIET, TWA
  carcinogen call: inactive; negative

## CN(C)c1ccc(C(=O)c2ccc(N(C)C)cc2)cc1
Species: MOUSE, Strain/Sex: B6C3F1/FEMALE, Route: ORAL, Dose: 0, 1250, 2500 PPM IN DIET, Dose: 0, 1250, 2500 PPM IN DIET, Tumor Site: Type of Lesion: LIVER: HEPATOCELLULAR ADENOMA OR CARCINOMA
  carcinogen call: active; positive
Species: MOUSE, Strain/Sex: B6C3F1/MALE, Route: ORAL, Dose: 0, 1250, 2500 PPM IN DIET, Dose: 0, 1250, 2500 PPM IN DIET, Tumor Site: Type of Lesion: INTEGUMENTARY SYSTEM (SUBCUTANEOUS TISSUE): HEMANGIOSARCOMA OR HEMANGIOMA
  carcinogen call: active; positive
Species: RAT, Strain/Sex: F344/FEMALE, Route: ORAL, Dose: 0, 500, 1000 PPM IN DIET, Dose: 0, 500, 1000 PPM IN DIET, Tumor Site: Type of Lesion: LIVER: HEPATOCELLULAR CARCINOMA OR NEOPLASTIC NODULE
  carcinogen call: active; positive
Species: RAT, Strain/Sex: F344/MALE, Route: ORAL, Dose: 0, 250, 500 PPM IN DIET, Dose: 0, 250, 500 PPM IN DIET, Tumor Site: Type of Lesion: LIVER: HEPATOCELLULAR CARCINOMA OR NEOPLASTIC NODULE
  carcinogen call: active; positive

## O=C(O)COc1ccc(Cl)cc1Cl (tested in a mixture with another compound)
Species: MOUSE, Strain/Sex: B6C3F1/FEMALE, Route: DERMAL, Dose: 0, 100, 200 MG/KG BW IN ETHANOL 5/WK FOR 104 WK (STUDY DURATION: 104 WK), Dose: 0, 100, 200 MG/KG BW IN ETHANOL 5/WK FOR 104 WK (STUDY DURATION: 104 WK), Tumor Site: Type of Lesion: LIVER: HEPATOCELLULAR ADENOMA, HEPATOCELLULAR CARCINOMA, HEPATOCELLULAR ADENOMA OR CARCINOMA OR HEPATOBLASTOMA
  carcinogen call: active; positive
Species: MOUSE, Strain/Sex: B6C3F1/MALE, Route: DERMAL, Dose: 0, 100, 200 MG/KG BW IN ETHANOL 5/WK FOR 104 WK (STUDY DURATION: 104 WK), Dose: 0, 100, 200 MG/KG BW IN ETHANOL 5/WK FOR 104 WK (STUDY DURATION: 104 WK), Tumor Site: Type of Lesion: KIDNEY: RENAL TUBULE ADENOMA, RENAL TUBULE ADENOMA OR CARCINOMA, LIVER: HEPATOCELLULAR ADENOMA, HEPATOCELLULAR CARCINOMA
  carcinogen call: active; positive
Species: RAT, Strain/Sex: F344/FEMALE, Route: DERMAL, Dose: 0, 50, 100 MG/KG BW IN ETHANOL 5/WK FOR 104 WK (STUDY DURATION: 104 WK), Dose: 0, 50, 100 MG/KG BW IN ETHANOL 5/WK FOR 104 WK (STUDY DURATION: 104 WK), Tumor Site: Type of Lesion: KIDNEY: RENAL TUBULE ADENOMA OR CARCINOMA
  carcinogen call: equivocal
Species: RAT, Strain/Sex: F344/MALE, Route: DERMAL, Dose: 0, 50, 100 MG/KG BW IN ETHANOL 5/WK FOR 104 WK (STUDY DURATION: 104 WK), Dose: 0, 50, 100 MG/KG BW IN ETHANOL 5/WK FOR 104 WK (STUDY DURATION: 104 WK)
  carcinogen call: inactive; negative
